Each block holds one compound with its values, some of them ahead of it. Calls of active or inactive are those of the source.
Tests used:
Melanocortin receptor 4 = Melanocortin receptor 4 (Homo sapiens, UniProt P32245); assay: inhibitors of MC4R cAMP signaling – cell-based, TR-FRET, biased antagonists, dose response (AID 602298); assay type: functional;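 further: antagonist potency against agonist-stimulated cAMP production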
[1] = cAMP pathway inhibition in counterscreen cell line – TR-FRET cAMP detection, counter-screen for MC4R biased antagonist project, dose response (AID 602305); assay type: functional, cell-based;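 further: U2OS cells stimulated with forskolin near its EC80 as the cAMP inducer; potency is for inhibition of forskolin-stimulated cAMP signaling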
[2] = molecular target: T1, Corticotropin-releasing factor receptor 2/Corticotropin-releasing factor-binding protein (Homo sapiens, UniProt P24387+Q13324); assay: Dose Response confirmation of uHTS hits for small molecule antagonists of the CRF-binding protein and CRF-R2 receptor complex.; assay type: functional; details: read-out: IC50_Mean
T1 sequence (Q13324 whole entry): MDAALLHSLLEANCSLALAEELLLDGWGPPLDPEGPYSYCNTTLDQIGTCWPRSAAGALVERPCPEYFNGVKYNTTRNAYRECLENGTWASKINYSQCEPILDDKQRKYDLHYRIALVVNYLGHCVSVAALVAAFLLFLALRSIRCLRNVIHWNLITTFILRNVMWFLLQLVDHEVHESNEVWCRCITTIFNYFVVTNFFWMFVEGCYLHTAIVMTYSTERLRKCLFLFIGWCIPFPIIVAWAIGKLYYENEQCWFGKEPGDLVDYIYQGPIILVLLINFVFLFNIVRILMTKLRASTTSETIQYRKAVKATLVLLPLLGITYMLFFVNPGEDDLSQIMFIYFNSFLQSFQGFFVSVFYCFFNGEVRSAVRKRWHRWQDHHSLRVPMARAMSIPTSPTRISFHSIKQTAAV
T1 sequence (P24387 whole entry): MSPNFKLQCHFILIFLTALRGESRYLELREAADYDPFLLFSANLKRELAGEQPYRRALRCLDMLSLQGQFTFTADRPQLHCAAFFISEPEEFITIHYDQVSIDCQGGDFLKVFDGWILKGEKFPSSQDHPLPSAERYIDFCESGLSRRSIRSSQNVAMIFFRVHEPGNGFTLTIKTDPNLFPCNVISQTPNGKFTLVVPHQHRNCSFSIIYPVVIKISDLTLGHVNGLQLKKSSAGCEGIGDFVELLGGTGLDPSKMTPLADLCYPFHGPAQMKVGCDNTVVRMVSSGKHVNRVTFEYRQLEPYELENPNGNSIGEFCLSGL

[3] = molecular target: T1, Corticotropin-releasing factor receptor 2/Corticotropin-releasing factor-binding protein; assay: activators of CRF receptor 2 with binding protein – uHTS hits, confirmation (AID 602473); assay type: functional; details: read-out: EC50_Mean
[4] = blockers of CRF-binding protein–CRF-R2 complex – cell-based, uHTS hits, 384-well, dose response (AID 651639); assay type: functional, Homo sapiens; details: read-out: IC50_Mean
[5] = molecular target: Mitochondrial peptide methionine sulfoxide reductase (Bos taurus, UniProt P54149); assay: Absorbance-based biochemical high throughput dose response assay for activators of Methionine sulfoxide reductase A (MsrA).; assay type: functional
[6] = molecular target: T2, Heat shock factor protein 1 (Mus musculus, UniProt P38532); assay: enhancement of HSF1-driven luciferase signal – cell-based, NIH3T3, luminescence, dose retest, confirmation (AID 435004); assay type: functional;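 further: stress induced by proteasome inhibitor MG132 added 30 min after compound; luciferase reporter driven by HSF1 response element in NIH3T3 cells; actives raise luminescence as potentiators of the MG132 stress response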
T2 sequence (P38532 whole entry): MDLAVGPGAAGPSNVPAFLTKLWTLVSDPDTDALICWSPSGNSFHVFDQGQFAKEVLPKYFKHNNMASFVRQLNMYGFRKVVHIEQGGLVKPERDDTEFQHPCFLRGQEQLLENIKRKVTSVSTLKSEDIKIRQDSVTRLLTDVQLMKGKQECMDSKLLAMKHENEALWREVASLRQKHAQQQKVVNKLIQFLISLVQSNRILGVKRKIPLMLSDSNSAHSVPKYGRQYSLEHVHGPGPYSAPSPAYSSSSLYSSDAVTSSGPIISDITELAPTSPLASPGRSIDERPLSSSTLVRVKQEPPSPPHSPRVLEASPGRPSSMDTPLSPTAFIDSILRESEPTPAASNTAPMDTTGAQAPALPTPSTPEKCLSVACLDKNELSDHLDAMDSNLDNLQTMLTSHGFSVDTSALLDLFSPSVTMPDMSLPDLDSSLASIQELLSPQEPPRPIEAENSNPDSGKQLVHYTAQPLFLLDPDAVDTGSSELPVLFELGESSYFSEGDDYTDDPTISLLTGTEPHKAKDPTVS

INS1 = assay: INS-1E survival protection against cytokine death – cell-based, luminescence, retest, dose response (AID 449756); assay type: functional; details: Rattus norvegicus;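 further: cell death triggered by IL-1 beta plus TNF-alpha plus IFN-gamma mixture; protective hits raise ATP signal compared with cytokine alone wells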
[7] = molecular target: T3, Microphthalmia-associated transcription factor (Homo sapiens, UniProt O75030); assay: reducers of TRPM1 reporter luminescence, concentration series – cell-based, SK-MEL-5, cherry-picked, set 3, MITF inhibitor project, dose response (AID 493073); assay type: functional;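 further: SK-MEL-5 melanoma cells with luciferase driven by the MITF target TRPM1 promoter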
T3 sequence (O75030 whole entry): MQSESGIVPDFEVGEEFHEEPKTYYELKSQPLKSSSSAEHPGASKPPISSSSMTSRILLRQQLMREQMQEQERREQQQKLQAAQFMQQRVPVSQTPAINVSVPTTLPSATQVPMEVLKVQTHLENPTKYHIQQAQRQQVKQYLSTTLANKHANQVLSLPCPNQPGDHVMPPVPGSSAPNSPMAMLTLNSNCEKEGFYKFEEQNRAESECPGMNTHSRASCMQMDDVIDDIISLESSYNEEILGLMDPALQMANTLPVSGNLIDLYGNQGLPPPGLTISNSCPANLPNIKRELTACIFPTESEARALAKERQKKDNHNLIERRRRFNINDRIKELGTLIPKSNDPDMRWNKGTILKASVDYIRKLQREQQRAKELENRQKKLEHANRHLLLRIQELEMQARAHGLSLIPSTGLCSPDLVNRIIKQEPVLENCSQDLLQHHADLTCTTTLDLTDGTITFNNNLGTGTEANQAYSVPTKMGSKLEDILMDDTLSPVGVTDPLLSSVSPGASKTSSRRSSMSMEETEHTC

Protein Wnt-3a = Protein Wnt-3a (Mus musculus, UniProt P27467); assay: antagonism of Wnt3a pathway luciferase reporter – Wnt-LIGHT cells, luminescence, selectivity assay for Gli-SUFU antagonist project, dose response (AID 651570); assay type: functional; details: read-out: IC50_Mean;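 further: Wnt-LIGHT reporter cells stimulated with conditioned medium from Wnt3a-producing cells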
[8] = molecular target: Serine/threonine-protein kinase pim-1 (Homo sapiens, UniProt P11309); assay type: functional
[9] = molecular target: Hepatocyte nuclear factor 4-alpha (Homo sapiens, UniProt P41235); assay type: functional, cell-based;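 further: biochemical luminescence-based dose-response counterscreen measuring inhibition of HNF4 dimerization, run alongside a screen for blockers of ABHD5–perilipin-5 interaction; split luciferase complementation of HNF4 fusion proteins in cell lysate measuring dimerization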
[10] = molecular target: T4, ATP-dependent translocase ABCB1 (Homo sapiens, UniProt P08183); assay: P-gp JC-1 efflux blockade concentration-response – Jurkat-DNR cells, flow cytometry, set 2, dose response (AID 504569); assay type: functional; details: read-out: EC50_MICROM_;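 further: potency of pump inhibitors that raise cellular JC-1 green fluorescence up to the nicardipine level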
[11] = molecular target: T4, ATP-dependent translocase ABCB1; assay: inhibition of BCRP-mediated JC-1 efflux – Ig-MXP3 cells, flow cytometry, set 2, dose response (AID 504566); assay type: functional; details: read-out: EC50_MICROM_;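 further: flow cytometry median green fluorescence of retained JC-1 dye; potency of efflux pump inhibition measured as rising substrate retention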

T4 sequence (P08183 whole entry): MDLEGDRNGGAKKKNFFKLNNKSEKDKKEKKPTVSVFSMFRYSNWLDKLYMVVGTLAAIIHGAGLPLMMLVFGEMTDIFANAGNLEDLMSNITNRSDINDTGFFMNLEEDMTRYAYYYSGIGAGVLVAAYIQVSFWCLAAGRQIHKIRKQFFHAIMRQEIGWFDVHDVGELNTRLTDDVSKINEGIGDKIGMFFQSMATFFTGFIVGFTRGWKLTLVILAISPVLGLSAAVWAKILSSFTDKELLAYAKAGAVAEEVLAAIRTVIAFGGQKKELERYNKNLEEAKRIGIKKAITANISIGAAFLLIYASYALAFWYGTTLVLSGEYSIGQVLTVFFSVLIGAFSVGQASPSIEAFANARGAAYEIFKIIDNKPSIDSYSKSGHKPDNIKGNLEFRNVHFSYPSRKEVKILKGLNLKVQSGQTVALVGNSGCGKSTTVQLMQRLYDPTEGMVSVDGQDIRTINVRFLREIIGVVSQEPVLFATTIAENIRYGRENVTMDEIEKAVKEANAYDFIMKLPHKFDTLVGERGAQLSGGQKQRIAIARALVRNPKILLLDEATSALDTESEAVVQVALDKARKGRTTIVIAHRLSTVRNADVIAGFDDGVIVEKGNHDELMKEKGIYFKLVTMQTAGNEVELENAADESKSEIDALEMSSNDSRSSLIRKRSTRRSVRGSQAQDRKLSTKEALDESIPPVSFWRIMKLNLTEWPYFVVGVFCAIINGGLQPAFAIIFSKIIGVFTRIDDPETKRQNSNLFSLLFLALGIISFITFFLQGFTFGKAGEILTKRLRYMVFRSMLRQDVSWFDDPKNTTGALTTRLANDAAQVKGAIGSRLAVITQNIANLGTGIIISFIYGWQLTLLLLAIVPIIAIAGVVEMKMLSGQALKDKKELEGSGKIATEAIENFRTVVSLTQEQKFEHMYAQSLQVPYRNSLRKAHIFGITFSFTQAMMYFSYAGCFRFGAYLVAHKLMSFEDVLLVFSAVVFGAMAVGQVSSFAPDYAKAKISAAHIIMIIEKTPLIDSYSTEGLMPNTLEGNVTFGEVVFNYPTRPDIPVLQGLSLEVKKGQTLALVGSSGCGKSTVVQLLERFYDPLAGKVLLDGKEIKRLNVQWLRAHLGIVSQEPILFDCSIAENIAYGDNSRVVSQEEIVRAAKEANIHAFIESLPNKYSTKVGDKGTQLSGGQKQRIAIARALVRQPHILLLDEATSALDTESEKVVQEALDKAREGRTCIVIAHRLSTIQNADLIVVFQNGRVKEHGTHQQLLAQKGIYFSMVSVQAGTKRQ
Protein Wnt-3a, sequence (P27467 whole entry): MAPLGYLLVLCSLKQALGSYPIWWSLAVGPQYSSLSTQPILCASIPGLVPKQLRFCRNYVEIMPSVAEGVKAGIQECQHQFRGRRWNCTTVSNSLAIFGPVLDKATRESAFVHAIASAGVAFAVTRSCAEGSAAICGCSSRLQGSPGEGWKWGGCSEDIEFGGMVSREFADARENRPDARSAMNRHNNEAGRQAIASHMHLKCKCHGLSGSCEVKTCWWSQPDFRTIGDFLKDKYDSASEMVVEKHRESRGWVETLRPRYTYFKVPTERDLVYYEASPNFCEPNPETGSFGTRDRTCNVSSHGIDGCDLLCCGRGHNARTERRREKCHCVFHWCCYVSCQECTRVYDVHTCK
Mitochondrial peptide methionine sulfoxide reductase, sequence (P54149 whole entry): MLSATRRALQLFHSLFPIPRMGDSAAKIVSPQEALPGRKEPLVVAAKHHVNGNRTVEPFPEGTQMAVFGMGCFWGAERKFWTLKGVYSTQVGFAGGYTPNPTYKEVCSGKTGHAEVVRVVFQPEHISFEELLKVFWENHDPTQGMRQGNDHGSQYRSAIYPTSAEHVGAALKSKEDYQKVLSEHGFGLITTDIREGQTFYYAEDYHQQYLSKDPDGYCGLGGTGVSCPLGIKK
Melanocortin receptor 4, sequence (P32245 whole entry): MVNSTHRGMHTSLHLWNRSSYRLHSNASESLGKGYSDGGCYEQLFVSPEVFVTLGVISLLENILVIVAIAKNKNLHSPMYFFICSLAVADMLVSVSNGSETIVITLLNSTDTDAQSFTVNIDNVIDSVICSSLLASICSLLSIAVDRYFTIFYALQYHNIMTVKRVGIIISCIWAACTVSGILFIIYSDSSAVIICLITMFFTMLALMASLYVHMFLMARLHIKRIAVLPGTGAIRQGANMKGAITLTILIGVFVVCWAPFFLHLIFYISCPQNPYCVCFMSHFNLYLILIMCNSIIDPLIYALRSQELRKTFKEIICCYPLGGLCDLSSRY
Serine/threonine-protein kinase pim-1, sequence (P11309 whole entry, the tested form may be a part): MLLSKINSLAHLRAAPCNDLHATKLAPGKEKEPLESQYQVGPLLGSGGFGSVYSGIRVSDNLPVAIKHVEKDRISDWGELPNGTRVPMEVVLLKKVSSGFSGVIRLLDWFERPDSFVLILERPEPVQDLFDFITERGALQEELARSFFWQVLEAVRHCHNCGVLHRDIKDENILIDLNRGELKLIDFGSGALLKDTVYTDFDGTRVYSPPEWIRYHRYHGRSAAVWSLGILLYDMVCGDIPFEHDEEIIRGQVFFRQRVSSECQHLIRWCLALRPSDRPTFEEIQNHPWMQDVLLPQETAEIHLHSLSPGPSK
Hepatocyte nuclear factor 4-alpha, sequence (P41235 whole entry, the tested form may be a part): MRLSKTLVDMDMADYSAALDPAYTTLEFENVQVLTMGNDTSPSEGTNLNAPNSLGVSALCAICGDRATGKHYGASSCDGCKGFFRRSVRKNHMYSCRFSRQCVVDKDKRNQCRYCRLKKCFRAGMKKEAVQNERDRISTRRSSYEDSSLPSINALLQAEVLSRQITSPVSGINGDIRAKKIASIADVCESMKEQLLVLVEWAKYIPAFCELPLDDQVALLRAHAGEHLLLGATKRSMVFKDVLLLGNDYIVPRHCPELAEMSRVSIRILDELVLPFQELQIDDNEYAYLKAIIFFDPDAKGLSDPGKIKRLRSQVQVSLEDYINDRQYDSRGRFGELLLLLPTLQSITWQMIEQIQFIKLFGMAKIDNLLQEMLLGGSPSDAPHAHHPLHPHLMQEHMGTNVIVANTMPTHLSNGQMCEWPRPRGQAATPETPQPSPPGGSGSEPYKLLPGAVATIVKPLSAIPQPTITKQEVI

SMILES: Cc1cc(C(=O)COc2cc(F)ccc2[N+](=O)[O-])c(C)n1CC1CCCO1 (centres undefined)
IC50 (Melanocortin receptor 4): > 64.6 µM (inactive) | IC50 [1]: > 64.6 µM (inactive)

SMILES: CC1(C)C2CC=C(/C=N/NC(=O)c3ccccc3O)C1C2 (centres undefined)
IC50 [2]: 5.3 µM (active) | EC50 [3]: 31.1 µM (active) | IC50 [4]: > 20 µM (inactive)

SMILES: Nc1nc2ccccc2n1/N=C/c1ccc([N+](=O)[O-])s1
EC50 [5]: > 104 µM (inactive) | EC50 [6]: 4.39 µM (active) | AC50 (INS1): 4.11 µM (active) | AC50 [7]: 2.81 µM (active) | IC50 (Protein Wnt-3a): 15.3 µM (active)

Results, then the compound that gave them:

Ki [8]: 3.98 µM (active)
SMILES: Cc1cc(=O)n2[nH]cc(C(=O)NCc3ccccc3)c2n1

IC50 [9]: 5.67 µM (active)
SMILES: COC(=O)c1cc(=O)n(Cc2ccco2)/c(=N/c2ccc(F)cc2)s1

EC50 [10]: 14.6 µM (active) | EC50 [11]: 6 µM (active)
SMILES: Cc1cccc(-c2nc3nc(C)cc(N4CCN(C(=O)c5ccco5)CC4)n3n2)c1
